Target: DDX41 (Homo sapiens, UniProt Q9UJV9)
Conditions: labelled compound ([γ-32P]ATP)

DDX41, sequence (Q9UJV9 whole entry): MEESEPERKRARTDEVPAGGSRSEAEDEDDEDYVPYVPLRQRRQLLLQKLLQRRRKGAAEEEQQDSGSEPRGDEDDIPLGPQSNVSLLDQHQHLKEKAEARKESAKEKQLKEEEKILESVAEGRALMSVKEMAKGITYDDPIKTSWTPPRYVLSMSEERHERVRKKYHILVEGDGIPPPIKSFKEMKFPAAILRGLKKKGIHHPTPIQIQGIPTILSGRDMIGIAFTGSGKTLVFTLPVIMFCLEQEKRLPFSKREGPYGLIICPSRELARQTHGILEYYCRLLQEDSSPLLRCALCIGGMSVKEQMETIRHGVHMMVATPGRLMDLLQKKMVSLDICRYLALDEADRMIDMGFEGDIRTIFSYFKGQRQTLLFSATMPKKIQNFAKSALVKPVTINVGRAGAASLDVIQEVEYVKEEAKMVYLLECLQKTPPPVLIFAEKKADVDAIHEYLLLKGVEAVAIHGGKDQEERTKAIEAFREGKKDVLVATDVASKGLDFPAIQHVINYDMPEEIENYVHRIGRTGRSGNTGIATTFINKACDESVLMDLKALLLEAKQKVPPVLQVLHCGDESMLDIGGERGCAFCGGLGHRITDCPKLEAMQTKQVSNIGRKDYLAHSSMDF

## Nc1ncnc2c1ncn2[C@@H]1O[C@H](COP(=O)(O)OP(=O)(O)OP(=O)(O)O)[C@@H](O)[C@H]1O [ATP]
  filter binding (dot blot); ATP-agarose pull-down: we incubated the same amount of WT or R525H proteins with ATP agarose

— paper PMC9205463 (Cell reports, 2022)
